Experimental data taken from patent US7732481B2, “Prolinylarylacetamides” (Merck Patent Gesellschaft mit beschrankter Haftung, priority 2003, dated 2010).

Columns and labels:
FXa = FXa (Homo sapiens, UniProt P00742); test: Inhibition of factor Xa (FXa-IC50); type: biochemical
Text: The inhibition of factor Xa by the compounds according to the invention and the measurement of the anticoagulant and antithrombotic activity can be determined by conventional in-vitro or in-vivo methods. A suitable method is described, for example, by J. Hauptmann et al. in Thrombosis and Haemostasis 1990, 63, 220-223.
The inhibition of factor Xa can be measured, for example by the method of T. Hara et al. in Thromb. Haemostas. 1994, 71, 314-319.

FXa, sequence (P00742 235-488 limits assumed): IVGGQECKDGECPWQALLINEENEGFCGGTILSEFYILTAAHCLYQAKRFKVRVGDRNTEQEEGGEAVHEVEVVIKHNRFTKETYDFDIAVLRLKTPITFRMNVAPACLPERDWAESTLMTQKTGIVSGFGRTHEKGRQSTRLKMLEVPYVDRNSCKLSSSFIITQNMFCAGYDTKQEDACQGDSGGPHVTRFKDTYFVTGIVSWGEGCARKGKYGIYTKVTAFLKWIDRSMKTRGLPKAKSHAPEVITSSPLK
FXa, sequence (P00742 41-179 limits assumed): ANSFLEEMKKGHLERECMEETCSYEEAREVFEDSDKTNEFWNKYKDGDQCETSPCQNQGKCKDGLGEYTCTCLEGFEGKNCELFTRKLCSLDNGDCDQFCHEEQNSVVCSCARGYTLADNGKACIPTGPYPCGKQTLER

SMILES | melting point | IC50 (FXa)
CN(C)CC(=O)N(C)c1ccc(NC(=O)[C@H]2C[C@@H](O)CN2C(=O)Nc2ccc(Cl)cc2)cc1 [Compound A1, 1-N-(4-Chlorophenyl)-2-N-{4-[(2-dimethylaminoethanoyl)methylamino]-phenyl}-(2R,4R)-4-hydroxypyrrolidine-1,2-dicarboxamide] | 95 °C | –
CCNCC(=O)N(C)c1ccc(NC(=O)[C@H]2C[C@@H](O)CN2C(=O)Nc2ccc(Cl)cc2)cc1 [Compound A3, 1-N-(4-Chlorophenyl)-2-N-{4-[(2-ethylaminoethanoyl)methylamino]-phenyl}-(2R,4R)-4-hydroxypyrrolidine-1,2-dicarboxamide] | 121 °C | 17 nM
CN(C(=O)CN1CCOCC1)c1ccc(NC(=O)[C@H]2C[C@@H](O)CN2C(=O)Nc2ccc(Cl)cc2)cc1 [Compound A1-1, 1-N-(4-chlorophenyl)-2-N-{4-[(2-(morpholin-4-yl)ethanoyl)methylamino]phenyl}-(2R,4R)-4-hydroxypyrrolidine-1,2-dicarboxamide] | – | 54 nM
COCC(=O)N(C)c1ccc(NC(=O)[C@H]2C[C@@H](O)CN2C(=O)Nc2ccc(Cl)cc2)cc1 [Compound A4, 1-N-(4-Chlorophenyl)-2-N-{4-[(2-methoxyethanoyl)methylamino]phenyl}-(2R,4R)-4-hydroxypyrrolidine-1,2-dicarboxamide] | 84 °C | –
CN(C(=O)CN1CCC(O)CC1)c1ccc(NC(=O)[C@H]2C[C@@H](O)CN2C(=O)Nc2ccc(Cl)cc2)cc1 [Compound A1-2, 1-N-(4-chlorophenyl)-2-N-{4-[(2-(4-hydroxypiperidin-1-yl)ethanoyl)-methylamino]phenyl}-(2R,4R)-4-hydroxypyrrolidine-1,2-dicarboxamide] | – | 37 nM
